Data from patent US11053204B2, “Pyrimidinyloxy benzene derivatives as herbicides” (FMC Corporation, priority 2015, dated 2021).

How the values were obtained:
Assay type in all cases: in vivo
[1] = test system: ragweed (common ragweed, Ambrosia elatior); assay: Test C preemergence, plant response rating; details: Preemergence
Method in brief: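 Visual injury score, 0 = no effect, 100 = complete control, assigned against untreated controls after 13 to 15 d in the greenhouse. Compounds were applied in a surfactant-containing non-phytotoxic solvent mix, preemergence to seeded loam/sand or silt loam soil, or postemergence to 1- to 4-leaf plants (2 to 18 cm).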

[2] = test system: Italian ryegrass (Lolium multiflorum); assay: Test A postemergence, visual injury rating; details: 0 is no effect, 100 is complete control
Method in brief: (§1)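 Compounds in non-phytotoxic solvent with surfactant applied as soil spray preemergence, or postemergence to plants 2-10 cm at one- to two-leaf stage, in loam/sand. After approximately 10 days in greenhouse, injury rated visually versus untreated controls, 0 (no effect) to 100 (complete control).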

[3] = test system: pigweed (Amaranthus retroflexus); assay: Test A postemergence, visual injury rating; details: 0 is no effect, 100 is complete control
Method in brief: as §1

[4] = test system: blackgrass (Alopecurus myosuroides); assay: Test A postemergence, visual injury rating; details: 0 is no effect, 100 is complete control
Method in brief: as §1

corn (Zea mays) = assay: Test A postemergence, visual injury rating; details: 0 is no effect, 100 is complete control
Method in brief: as §1

[5] = test system: barnyardgrass (Echinochloa crus-galli); assay: Test A postemergence, visual injury rating; details: 0 is no effect, 100 is complete control
Method in brief: as §1

[6] = test system: giant foxtail (Setaria faberii); assay: Test A postemergence, visual injury rating; details: 0 is no effect, 100 is complete control
Method in brief: as §1

[7] = test system: galium (catchweed bedstraw, Galium aparine); assay: Test A postemergence, visual injury rating; details: 0 is no effect, 100 is complete control
Method in brief: as §1

[8] = test system: wheat (Triticum aestivum); assay: Test A postemergence, visual injury rating; details: 0 is no effect, 100 is complete control
Method in brief: as §1

[9] = test system: ragweed (common ragweed, Ambrosia elatior); assay: Test A postemergence, visual injury rating; details: 0 is no effect, 100 is complete control
Method in brief: as §1

[10] = test system: barnyardgrass (Echinochloa crus-galli); assay: Test B flooded paddy test, plant response rating; details: 250 g ai/ha; Flood; scale of 0 to 100 where 0 is no effect and 100 is complete control; 13 to 15 days
Method in brief: (§2)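 Test compounds are applied straight into paddy water held 3 cm above the soil surface, with that flood maintained for the whole test. After 13 to 15 days in the greenhouse, each species is scored visually relative to controls.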

rice (Oryza sativa) = assay: Test B flooded paddy test, plant response rating; details: 250 g ai/ha; Flood; scale of 0 to 100 where 0 is no effect and 100 is complete control; 13 to 15 days
Method in brief: as §2

[11] = test system: ducksalad (Heteranthera limosa); assay: Test B flooded paddy test, plant response rating; details: 250 g ai/ha; Flood; scale of 0 to 100 where 0 is no effect and 100 is complete control; 13 to 15 days
Method in brief: as §2

[12] = test system: sedge, umbrella (small-flower umbrella sedge, Cyperus difformis); assay: Test B flooded paddy test, plant response rating; details: 250 g ai/ha; Flood; scale of 0 to 100 where 0 is no effect and 100 is complete control; 13 to 15 days
Method in brief: as §2

[13] = test system: Italian ryegrass (Lolium multiflorum); assay: Test A preemergence, visual injury rating; details: 0 to 100 scale (0 no effect, 100 complete control)
Method in brief: as §1

[14] = test system: pigweed (Amaranthus retroflexus); assay: Test A preemergence, visual injury rating; details: 0 to 100 scale (0 no effect, 100 complete control)
Method in brief: as §1

[15] = test system: barnyardgrass (Echinochloa crus-galli); assay: Test A preemergence, visual injury rating; details: 0 to 100 scale (0 no effect, 100 complete control)
Method in brief: as §1

[16] = test system: giant foxtail (Setaria faberii); assay: Test A preemergence, visual injury rating; details: 0 to 100 scale (0 no effect, 100 complete control)
Method in brief: as §1

kochia (Kochia scoparia) [17] = assay: Test A preemergence, visual injury rating; details: 0 to 100 scale (0 no effect, 100 complete control)
Method in brief: as §1

[18] = test system: ragweed (common ragweed, Ambrosia elatior); assay: Test A preemergence, visual injury rating; details: 0 to 100 scale (0 no effect, 100 complete control)
Method in brief: as §1

kochia (Kochia scoparia) [19] = assay: Test A postemergence, visual injury rating; details: 0 is no effect, 100 is complete control
Method in brief: as §1

[20] = 125 g ai/ha, 0 to 100 scale, approximately 10 days

SMILES: C=C(Br)COC(=O)c1c(Br)cccc1Oc1ncc(Cl)cn1 [Compound 61]
- Plant response rating, Ragweed ([1]; 125 g ai/ha, scale of 0 to 100): 30
- Plant response rating, Ragweed ([1]; 16 g ai/ha, scale 0 to 100): 0
- Plant response rating, Ragweed ([1]; 31 g ai/ha, scale 0 to 100): 0
- Plant response rating, Ragweed ([1]; 62 g ai/ha, scale 0 to 100): 5
- Ryegrass, Italian plant response rating (0 to 100 scale) ([2]; 125 g ai/ha): 20
- Ryegrass, Italian plant response rating (0 to 100 scale) ([2]; 500 g ai/ha): 80
- Pigweed plant response rating (0 to 100 scale) ([3]; 125 g ai/ha): 40
- Pigweed plant response rating (0 to 100 scale) ([3]; 500 g ai/ha): 100
- Blackgrass plant response rating (0 to 100 scale) ([4]; 125 g ai/ha): 30
- Blackgrass plant response rating (0 to 100 scale) ([4]; 500 g ai/ha): 100
- Corn plant response rating (0 to 100 scale) (corn (Zea mays); 125 g ai/ha): 20
- Corn plant response rating (0 to 100 scale) (corn (Zea mays); 500 g ai/ha): 40
- Barnyardgrass plant response rating (0 to 100 scale) ([5]; 125 g ai/ha): 100
- Barnyardgrass plant response rating (0 to 100 scale) ([5]; 500 g ai/ha): 100
- Foxtail, Giant plant response rating (0 to 100 scale) ([6]; 125 g ai/ha): 60
- Foxtail, Giant plant response rating (0 to 100 scale) ([6]; 500 g ai/ha): 100
- Galium plant response rating (0 to 100 scale) ([7]; 125 g ai/ha): 60
- Galium plant response rating (0 to 100 scale) ([7]; 500 g ai/ha): 100
- Wheat plant response rating (0 to 100 scale) ([8]; 125 g ai/ha): 0
- Wheat plant response rating (0 to 100 scale) ([8]; 500 g ai/ha): 30
- Ragweed plant response rating (0 to 100 scale) ([9]; 125 g ai/ha): 10
- Ragweed plant response rating (0 to 100 scale) ([9]; 500 g ai/ha): 30
- Plant response rating, Barnyardgrass [10]: 20
- Plant response rating, Rice (rice (Oryza sativa)): 0
- Plant response rating, Ducksalad [11]: 100
- Plant response rating, Sedge, Umbrella [12]: 100
- Ryegrass, Italian plant response rating ([13]; 125 g ai/ha): 30
- Ryegrass, Italian plant response rating ([13]; 500 g ai/ha): 80
- Pigweed plant response rating ([14]; 125 g ai/ha): 100
- Pigweed plant response rating ([14]; 500 g ai/ha): 100
- Barnyardgrass plant response rating ([15]; 125 g ai/ha): 50
- Barnyardgrass plant response rating ([15]; 500 g ai/ha): 100
- Foxtail, Giant plant response rating ([16]; 125 g ai/ha): 100
- Foxtail, Giant plant response rating ([16]; 500 g ai/ha): 100
- Kochia plant response rating (kochia (Kochia scoparia) [17]; 125 g ai/ha): 90
- Kochia plant response rating (kochia (Kochia scoparia) [17]; 500 g ai/ha): 100
- Ragweed plant response rating ([18]; 125 g ai/ha): 0
- Ragweed plant response rating ([18]; 500 g ai/ha): 20

SMILES: N#Cc1cccc(Oc2ncc(Cl)cn2)c1CCCCC(F)(F)F [Compound 73, 3-[(5-chloro-2-pyrimidinyl)oxy]-2-(5,5,5-trifluoropentyl)benzonitrile]
- pest or weed control at 125 g/ha ([1]; Ambrosia artemisiifolia, pre-emergence, 125 g ai/ha, scale of 0 to 100): 25%
- pest or weed control at 16 g/ha ([1]; Ambrosia artemisiifolia, pre-emergence, 16 g ai/ha, scale 0 to 100): 0%
- pest or weed control at 31 g/ha ([1]; Ambrosia artemisiifolia, pre-emergence, 31 g ai/ha, scale 0 to 100): 0%
- pest or weed control at 62 g/ha ([1]; Ambrosia artemisiifolia, pre-emergence, 62 g ai/ha, scale 0 to 100): 10%
- Ryegrass, Italian plant response rating [2, 20]: 80
- pest or weed control at 500 g/ha ([2]; Lolium multiflorum, post-emergence, 240 h, 500 g ai/ha, read-out: Ryegrass, Italian plant response rating (0 to 100 scale)): 100%
- Pigweed plant response rating [3, 20]: 100
- pest or weed control at 500 g/ha ([3]; Amaranthus retroflexus, post-emergence, 240 h, 500 g ai/ha, read-out: Pigweed plant response rating (0 to 100 scale)): 100%
- pest or weed control at 125 g/ha ([4]; Alopecurus myosuroides, post-emergence, 240 h, 125 g ai/ha, read-out: Blackgrass plant response rating (0 to 100 scale)): 50%
- pest or weed control at 500 g/ha ([4]; Alopecurus myosuroides, post-emergence, 240 h, 500 g ai/ha, read-out: Blackgrass plant response rating (0 to 100 scale)): 100%
- plant injury at 125 g/ha (corn (Zea mays); Zea mays, post-emergence, 240 h, 125 g ai/ha, read-out: Corn plant response rating (0 to 100 scale)): 30%
- plant injury at 500 g/ha (corn (Zea mays); Zea mays, post-emergence, 240 h, 500 g ai/ha, read-out: Corn plant response rating (0 to 100 scale)): 60%
- pest or weed control at 125 g/ha ([5]; Echinochloa crus-galli, post-emergence, 240 h, 125 g ai/ha, read-out: Barnyardgrass plant response rating (0 to 100 scale)): 90%
- pest or weed control at 500 g/ha ([5]; Echinochloa crus-galli, post-emergence, 240 h, 500 g ai/ha, read-out: Barnyardgrass plant response rating (0 to 100 scale)): 100%
- pest or weed control at 125 g/ha ([6]; Setaria faberi, post-emergence, 240 h, 125 g ai/ha, read-out: Foxtail, Giant plant response rating (0 to 100 scale)): 100%
- pest or weed control at 500 g/ha ([6]; Setaria faberi, post-emergence, 240 h, 500 g ai/ha, read-out: Foxtail, Giant plant response rating (0 to 100 scale)): 100%
- pest or weed control at 125 g/ha ([7]; Galium, post-emergence, 240 h, 125 g ai/ha, read-out: Galium plant response rating (0 to 100 scale)): 100%
- pest or weed control at 500 g/ha ([7]; Galium, post-emergence, 240 h, 500 g ai/ha, read-out: Galium plant response rating (0 to 100 scale)): 100%
- Kochia plant response rating (kochia (Kochia scoparia) [19]; [20]): 100
- pest or weed control at 500 g/ha (kochia (Kochia scoparia) [19]; Bassia scoparia, post-emergence, 240 h, 500 g ai/ha, read-out: Kochia plant response rating (0 to 100 scale)): 100%
- Wheat plant response rating [8, 20]: 20
- plant injury at 500 g/ha ([8]; Triticum aestivum, post-emergence, 240 h, 500 g ai/ha, read-out: Wheat plant response rating (0 to 100 scale)): 90%
- Ragweed plant response rating [9, 20]: 20
- pest or weed control at 500 g/ha ([9]; Ambrosia artemisiifolia, post-emergence, 240 h, 500 g ai/ha, read-out: Ragweed plant response rating (0 to 100 scale)): 30%
- pest or weed control at 125 g/ha ([13]; Lolium multiflorum, pre-emergence, 240 h, 125 g ai/ha, read-out: Ryegrass, Italian plant response rating): 50%
- pest or weed control at 500 g/ha ([13]; Lolium multiflorum, pre-emergence, 240 h, 500 g ai/ha, read-out: Ryegrass, Italian plant response rating): 90%
- pest or weed control at 125 g/ha ([14]; Amaranthus retroflexus, pre-emergence, 240 h, 125 g ai/ha, read-out: Pigweed plant response rating): 100%
- pest or weed control at 500 g/ha ([14]; Amaranthus retroflexus, pre-emergence, 240 h, 500 g ai/ha, read-out: Pigweed plant response rating): 100%
- pest or weed control at 125 g/ha ([15]; Echinochloa crus-galli, pre-emergence, 240 h, 125 g ai/ha, read-out: Barnyardgrass plant response rating): 100%
- pest or weed control at 500 g/ha ([15]; Echinochloa crus-galli, pre-emergence, 240 h, 500 g ai/ha, read-out: Barnyardgrass plant response rating): 100%
- pest or weed control at 125 g/ha ([16]; Setaria faberi, pre-emergence, 240 h, 125 g ai/ha, read-out: Foxtail, Giant plant response rating): 100%
- pest or weed control at 500 g/ha ([16]; Setaria faberi, pre-emergence, 240 h, 500 g ai/ha, read-out: Foxtail, Giant plant response rating): 100%
- pest or weed control at 125 g/ha (kochia (Kochia scoparia) [17]; Bassia scoparia, pre-emergence, 240 h, 125 g ai/ha, read-out: Kochia plant response rating): 100%
- pest or weed control at 500 g/ha (kochia (Kochia scoparia) [17]; Bassia scoparia, pre-emergence, 240 h, 500 g ai/ha, read-out: Kochia plant response rating): 100%
- pest or weed control at 125 g/ha ([18]; Ambrosia artemisiifolia, pre-emergence, 240 h, 125 g ai/ha, read-out: Ragweed plant response rating): 10%
- pest or weed control at 500 g/ha ([18]; Ambrosia artemisiifolia, pre-emergence, 240 h, 500 g ai/ha, read-out: Ragweed plant response rating): 50%
